Literature values, collected in patent EP4506356A1, “METHANOL-INDUCIBLE PROMOTER AND USE THEREOF IN PREPARATION OF L-ALANYL-L-GLUTAMINE” (Wuhan Grand Hoyo Co., Ltd., priority 2022, dated 2023).
In brackets after ≈: the same amount, converted by molar mass. Residues, ends and D or L forms follow the SMILES beside them.

water solubility: 586 mg/mL (≈ 2700 mM)
Structure (SMILES): C[C@H](N)C(=O)N[C@@H](CCC(N)=O)C(=O)O [Alanyl-glutamine dipeptide, L-alanyl-L-glutamine] (H-Ala-Gln-OH)
